Targets include ACVR1B (Homo sapiens, UniProt P36896); ACVR2B (Homo sapiens, UniProt Q13705); CAMK2B (Homo sapiens, UniProt Q13554); DMPK (Homo sapiens, UniProt Q09013); FGFR4 (Homo sapiens, UniProt P22455); MET(Y1235D) (Homo sapiens, UniProt P08581, Y1235D); MYLK4 (Homo sapiens, UniProt Q86YV6); PIK3CD (Homo sapiens, UniProt O00329); PRKCI (Homo sapiens, UniProt P41743); TBK1 (Homo sapiens, UniProt Q9UHD2); TESK1 (Homo sapiens, UniProt Q15569); FLT3(D835H) (Homo sapiens, UniProt P36888, D835H); ERBB4 (Homo sapiens, UniProt Q15303); KIT(L576P) (Homo sapiens, UniProt P10721, L576P).

Holding throughout (assay): biochemical
Common to all, as to parameters: KINOMEscan scanMAX competition binding, DNA-tagged kinases, qPCR read-out, percent control at 300 nM

Assay [1] deals with T1, ABL1(E255K)-phosphorylated (Homo sapiens, UniProt P00519, E255K).
T1 construct: phosphorylated

Another assay concerns the target T2, ERK5 (Homo sapiens, UniProt Q13164).
T2 construct: gene MAPK7

A further assay concerns the target T3, MRCKB (Homo sapiens, UniProt Q9Y5S2).
T3 construct: gene CDC42BPB

For a further assay, the target named is T4, NDR1 (Homo sapiens, UniProt Q15208).
T4 construct: gene STK38
T4 sequence (Q15208 whole entry): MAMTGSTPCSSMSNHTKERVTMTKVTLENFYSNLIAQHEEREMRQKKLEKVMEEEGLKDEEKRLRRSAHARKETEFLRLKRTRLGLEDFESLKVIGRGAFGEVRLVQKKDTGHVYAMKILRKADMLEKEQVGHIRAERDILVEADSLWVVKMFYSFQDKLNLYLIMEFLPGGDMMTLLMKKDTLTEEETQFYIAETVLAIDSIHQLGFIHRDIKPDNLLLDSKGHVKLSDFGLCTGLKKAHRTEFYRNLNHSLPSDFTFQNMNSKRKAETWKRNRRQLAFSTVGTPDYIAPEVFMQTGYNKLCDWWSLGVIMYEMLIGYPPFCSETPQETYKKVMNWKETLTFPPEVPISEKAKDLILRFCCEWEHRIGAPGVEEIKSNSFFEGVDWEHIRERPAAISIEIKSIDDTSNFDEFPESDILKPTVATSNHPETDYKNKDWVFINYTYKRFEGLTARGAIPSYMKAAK

The target of assay [2] is T5, RPS6KA5(Kin.Dom.1-N-terminal) (Homo sapiens, UniProt O75582).
T5 construct: Kin.Dom.1-N-terminal

For assay [3], the target named is T6, ABL1(F317L)-phosphorylated (Homo sapiens, UniProt P00519, F317L).
T6 construct: phosphorylated

The target in assay [4] is T7, ABL1(Q252H)-phosphorylated (Homo sapiens, UniProt P00519, Q252H).
T7 construct: phosphorylated

In the next assay the target is T8, DRAK2 (Homo sapiens, UniProt O94768).
T8 construct: gene STK17B

A further assay deals with T9, MEK3 (Homo sapiens, UniProt P46734).
T9 construct: gene MAP2K3

The mark [5] stands for this setting: read-out: Percent control / Zanubrutinib.
Setting [6] is: read-out: Percent control / Tirabrutinib.
The mark [7] stands for this setting: read-out: Percent control / Ibrutinib.
[8] abbreviates: read-out: Percent control / Acalabrutinib.

Like-named read-outs stand apart in the source and are kept apart here.

T3 sequence (Q9Y5S2 whole entry): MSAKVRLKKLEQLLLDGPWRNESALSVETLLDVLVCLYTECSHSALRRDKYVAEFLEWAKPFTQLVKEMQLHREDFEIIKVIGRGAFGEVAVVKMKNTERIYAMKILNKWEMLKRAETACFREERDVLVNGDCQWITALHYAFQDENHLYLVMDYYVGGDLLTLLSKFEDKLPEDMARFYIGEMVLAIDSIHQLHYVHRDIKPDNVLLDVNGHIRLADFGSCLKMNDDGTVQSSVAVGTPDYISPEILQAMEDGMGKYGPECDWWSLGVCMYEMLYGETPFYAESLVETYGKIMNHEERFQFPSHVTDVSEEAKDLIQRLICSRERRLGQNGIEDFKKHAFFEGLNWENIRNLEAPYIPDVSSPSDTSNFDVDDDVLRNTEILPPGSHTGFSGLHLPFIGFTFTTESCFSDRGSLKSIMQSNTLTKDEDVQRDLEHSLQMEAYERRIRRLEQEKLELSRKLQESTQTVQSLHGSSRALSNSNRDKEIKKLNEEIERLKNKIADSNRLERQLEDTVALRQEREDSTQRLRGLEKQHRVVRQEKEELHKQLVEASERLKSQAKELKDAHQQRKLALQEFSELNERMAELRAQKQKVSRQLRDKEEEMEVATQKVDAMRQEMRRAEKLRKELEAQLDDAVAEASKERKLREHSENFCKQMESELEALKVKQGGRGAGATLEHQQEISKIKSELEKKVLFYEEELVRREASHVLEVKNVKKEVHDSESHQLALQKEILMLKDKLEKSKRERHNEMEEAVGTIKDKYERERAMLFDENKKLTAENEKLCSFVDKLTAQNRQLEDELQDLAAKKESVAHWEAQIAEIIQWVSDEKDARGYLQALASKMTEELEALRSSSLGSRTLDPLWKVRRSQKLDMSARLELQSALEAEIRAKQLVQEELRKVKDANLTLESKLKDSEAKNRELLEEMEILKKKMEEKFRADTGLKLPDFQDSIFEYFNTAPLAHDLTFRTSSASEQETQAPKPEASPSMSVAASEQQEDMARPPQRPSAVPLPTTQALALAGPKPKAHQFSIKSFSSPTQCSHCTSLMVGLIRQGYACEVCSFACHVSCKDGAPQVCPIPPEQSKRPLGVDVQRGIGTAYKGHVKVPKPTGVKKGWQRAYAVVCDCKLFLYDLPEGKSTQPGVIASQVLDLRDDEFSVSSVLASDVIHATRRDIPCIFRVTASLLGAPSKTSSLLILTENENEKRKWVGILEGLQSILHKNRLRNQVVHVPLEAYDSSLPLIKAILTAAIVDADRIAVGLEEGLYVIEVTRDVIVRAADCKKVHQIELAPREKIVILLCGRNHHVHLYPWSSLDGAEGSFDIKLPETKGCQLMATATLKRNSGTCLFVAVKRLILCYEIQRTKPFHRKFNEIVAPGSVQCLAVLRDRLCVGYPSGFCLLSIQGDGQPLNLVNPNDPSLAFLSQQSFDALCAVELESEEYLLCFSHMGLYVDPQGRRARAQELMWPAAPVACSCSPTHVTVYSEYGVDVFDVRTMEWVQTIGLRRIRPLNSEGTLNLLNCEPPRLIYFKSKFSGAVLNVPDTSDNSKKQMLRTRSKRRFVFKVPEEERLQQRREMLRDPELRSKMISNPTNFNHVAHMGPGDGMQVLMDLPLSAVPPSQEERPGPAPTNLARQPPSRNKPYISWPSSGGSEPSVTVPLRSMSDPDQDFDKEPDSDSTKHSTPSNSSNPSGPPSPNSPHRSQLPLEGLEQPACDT
Sequence of ERBB4 (Q15303 whole entry): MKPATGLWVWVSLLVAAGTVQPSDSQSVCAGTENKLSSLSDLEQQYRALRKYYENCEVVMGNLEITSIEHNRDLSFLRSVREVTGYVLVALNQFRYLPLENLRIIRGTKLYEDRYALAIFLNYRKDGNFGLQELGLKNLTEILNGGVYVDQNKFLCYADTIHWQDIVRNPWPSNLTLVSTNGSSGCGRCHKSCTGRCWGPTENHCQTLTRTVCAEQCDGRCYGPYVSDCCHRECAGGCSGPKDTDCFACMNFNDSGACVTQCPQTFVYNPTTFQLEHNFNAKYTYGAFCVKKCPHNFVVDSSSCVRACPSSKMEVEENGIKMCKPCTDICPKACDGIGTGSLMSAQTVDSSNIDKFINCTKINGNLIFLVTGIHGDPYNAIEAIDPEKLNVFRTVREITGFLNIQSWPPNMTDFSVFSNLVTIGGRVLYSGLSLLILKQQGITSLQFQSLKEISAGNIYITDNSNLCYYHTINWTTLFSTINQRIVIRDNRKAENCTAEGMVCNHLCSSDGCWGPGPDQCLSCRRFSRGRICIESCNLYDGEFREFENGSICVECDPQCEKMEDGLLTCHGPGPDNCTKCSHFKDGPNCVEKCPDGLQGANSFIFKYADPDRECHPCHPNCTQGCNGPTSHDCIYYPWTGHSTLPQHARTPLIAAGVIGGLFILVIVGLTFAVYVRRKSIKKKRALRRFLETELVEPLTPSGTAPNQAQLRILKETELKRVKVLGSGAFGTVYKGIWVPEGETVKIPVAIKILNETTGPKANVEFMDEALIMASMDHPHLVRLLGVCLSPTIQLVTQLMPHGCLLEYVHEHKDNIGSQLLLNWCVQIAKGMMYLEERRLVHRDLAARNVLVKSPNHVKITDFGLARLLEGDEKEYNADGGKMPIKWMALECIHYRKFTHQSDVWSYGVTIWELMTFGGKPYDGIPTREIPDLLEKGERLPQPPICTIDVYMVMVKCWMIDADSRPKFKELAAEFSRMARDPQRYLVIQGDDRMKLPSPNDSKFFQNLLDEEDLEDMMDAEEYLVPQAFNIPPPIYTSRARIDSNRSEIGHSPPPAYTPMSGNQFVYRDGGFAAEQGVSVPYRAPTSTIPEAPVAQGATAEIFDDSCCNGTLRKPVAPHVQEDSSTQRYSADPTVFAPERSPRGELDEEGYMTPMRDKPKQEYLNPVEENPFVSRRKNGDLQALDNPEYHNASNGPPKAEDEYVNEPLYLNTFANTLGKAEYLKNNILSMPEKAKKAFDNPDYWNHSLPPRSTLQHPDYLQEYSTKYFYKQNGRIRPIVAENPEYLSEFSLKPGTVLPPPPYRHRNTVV
Sequence of FGFR4 (P22455 whole entry): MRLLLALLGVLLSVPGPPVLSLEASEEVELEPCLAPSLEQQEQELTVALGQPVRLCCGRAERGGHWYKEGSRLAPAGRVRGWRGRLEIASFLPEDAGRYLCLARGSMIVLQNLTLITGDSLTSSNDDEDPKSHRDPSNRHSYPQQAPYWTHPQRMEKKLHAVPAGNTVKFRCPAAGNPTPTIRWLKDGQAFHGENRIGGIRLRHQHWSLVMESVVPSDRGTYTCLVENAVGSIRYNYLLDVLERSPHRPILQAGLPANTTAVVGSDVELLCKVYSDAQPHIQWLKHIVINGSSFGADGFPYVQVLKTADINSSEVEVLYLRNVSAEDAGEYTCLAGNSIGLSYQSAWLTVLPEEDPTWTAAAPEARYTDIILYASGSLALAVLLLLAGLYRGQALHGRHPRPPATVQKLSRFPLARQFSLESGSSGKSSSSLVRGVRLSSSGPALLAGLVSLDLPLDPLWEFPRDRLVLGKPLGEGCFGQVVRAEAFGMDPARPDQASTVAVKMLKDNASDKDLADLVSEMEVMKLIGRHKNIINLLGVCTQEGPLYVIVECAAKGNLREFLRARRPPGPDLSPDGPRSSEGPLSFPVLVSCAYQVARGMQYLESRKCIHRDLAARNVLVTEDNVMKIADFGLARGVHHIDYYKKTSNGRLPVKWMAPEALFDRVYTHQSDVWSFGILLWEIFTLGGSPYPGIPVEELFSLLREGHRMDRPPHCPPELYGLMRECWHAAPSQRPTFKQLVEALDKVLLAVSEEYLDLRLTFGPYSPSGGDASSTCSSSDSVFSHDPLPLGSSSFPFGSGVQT
Sequence of TBK1 (Q9UHD2 whole entry): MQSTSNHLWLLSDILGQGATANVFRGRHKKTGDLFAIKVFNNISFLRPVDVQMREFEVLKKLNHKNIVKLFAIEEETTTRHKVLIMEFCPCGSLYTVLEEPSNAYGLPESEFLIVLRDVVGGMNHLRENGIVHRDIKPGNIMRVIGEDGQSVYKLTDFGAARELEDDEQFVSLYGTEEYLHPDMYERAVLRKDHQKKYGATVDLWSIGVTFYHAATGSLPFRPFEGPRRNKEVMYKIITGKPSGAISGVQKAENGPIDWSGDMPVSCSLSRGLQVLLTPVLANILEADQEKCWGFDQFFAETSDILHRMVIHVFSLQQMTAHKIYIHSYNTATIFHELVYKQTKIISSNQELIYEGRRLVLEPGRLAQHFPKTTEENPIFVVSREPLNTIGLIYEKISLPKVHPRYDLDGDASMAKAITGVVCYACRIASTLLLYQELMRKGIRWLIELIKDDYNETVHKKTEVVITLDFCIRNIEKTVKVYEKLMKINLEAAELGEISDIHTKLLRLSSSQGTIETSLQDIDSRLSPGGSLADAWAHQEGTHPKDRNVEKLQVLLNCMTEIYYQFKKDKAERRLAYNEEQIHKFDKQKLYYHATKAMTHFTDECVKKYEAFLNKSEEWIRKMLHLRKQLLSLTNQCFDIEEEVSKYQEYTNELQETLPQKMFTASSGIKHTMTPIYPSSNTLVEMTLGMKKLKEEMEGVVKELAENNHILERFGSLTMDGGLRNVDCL

For `C=CC(=O)N1CCC([C@@H]2CCNc3c(C(N)=O)c(-c4ccc(Oc5ccccc5)cc4)nn32)CC1` [Zanubrutinib], the remaining binding at 0.3 µM worked out at 80% in assay [1] (setting [5]); 92% at ACVR1B (setting [5]); 91% at ACVR2B (setting [5]); 68% on CAMK2B (setting [5]); 90% at DMPK (setting [5]); 84% at ERK5 (setting [5]). Further, the remaining binding at 0.3 µM on FGFR4 (setting [5]) stood at 91%; at MET(Y1235D) (setting [5]), 88%; at MRCKB (setting [5]), 90%; at MYLK4 (setting [5]) it was 96%; on NDR1 (setting [5]), 97%; at PIK3CD (setting [5]), 37%. Further, the remaining binding at 0.3 µM came to 68% on PRKCI (setting [5]), 100% in assay [2] (setting [5]), 93% at TBK1 (setting [5]) and 83% on TESK1 (setting [5]).
With `CC#CC(=O)N1CC[C@@H](n2c(=O)n(-c3ccc(Oc4ccccc4)cc3)c3c(N)ncnc32)C1` [Tirabrutinib], the remaining binding at 0.3 µM in [3] (setting [6]) was determined as 57%; in assay [4] (setting [6]), 87%; on DMPK (setting [6]), 93%; on FLT3(D835H) (setting [6]), 95%; in [2] (setting [6]) it was 80%.
In the case of `C=CC(=O)N1CCC[C@@H](n2nc(-c3ccc(Oc4ccccc4)cc3)c3c(N)ncnc32)C1` [Ibrutinib], the remaining binding at 0.3 µM on CAMK2B (setting [7]) was determined as 90%; at DRAK2 (setting [7]), 82%; on ERBB4 (setting [7]), 0.15%; on FLT3(D835H) (setting [7]) it was 25%; at KIT(L576P) (setting [7]) it was 72%; on MEK3 (setting [7]), 93%. Further, the remaining binding at 0.3 µM on MYLK4 (setting [7]) is 94%.
In the case of `CC#CC(=O)N1CCC[C@H]1c1nc(-c2ccc(C(=O)Nc3ccccn3)cc2)c2c(N)nccn12` [Acalabrutinib], the remaining binding at 0.3 µM turned out to be 95% in assay [1] (setting [8]); 81% in assay [3] (setting [8]); 86% in [4] (setting [8]); 99% at ACVR1B (setting [8]); 85% on ACVR2B (setting [8]); 97% on DRAK2 (setting [8]). Also, the remaining binding at 0.3 µM at ERBB4 (setting [8]) was found to be 7.7%; on ERK5 (setting [8]), 97%; on FGFR4 (setting [8]), 91%; at KIT(L576P) (setting [8]), 86%; on MEK3 (setting [8]), 99%; at MET(Y1235D) (setting [8]), 86%. Moreover, the remaining binding at 0.3 µM at MRCKB (setting [8]) came out at 93%; on NDR1 (setting [8]) it was 97%; at PIK3CD (setting [8]), 88%; at PRKCI (setting [8]), 87%; on TBK1 (setting [8]) it was 91%; on TESK1 (setting [8]) it was 79%.

These data come from paper PMC10004634 (PLOS ONE, 2023).
